Reference: the NIST ThermoML archive (doi:10.1021/je020140j)
Numbers after ± are expanded uncertainties.

Experiment: molar heat capacity at constant pressure; xn = mol fraction of the nth substance listed
Settings: 101 kPa, Liquid, Small sample (50 mg) DSC

OCCO [1,2-ethanediol] + O
molar heat capacity at constant pressure [J/K/mol]
Settings	x1 = 0.0312	x1 = 0.0676	x1 = 0.1105	x1 = 0.162	x1 = 0.2248	x1 = 0.3031	x1 = 0.4036	x1 = 0.537	x1 = 0.723	x1 = 1
293.15 K	88.03 ± 2.2	87.6 ± 2.1	86.7 ± 2.1	89.39 ± 2.2	93.61 ± 2.3	98.37 ± 2.4	104.66 ± 2.6	114.3 ± 2.8	127.9 ± 3.1	147.47 ± 3.6
303.15 K	87.89 ± 2.2	87.81 ± 2.1	87.05 ± 2.1	89.67 ± 2.2	94.42 ± 2.3	99.15 ± 2.4	105.99 ± 2.6	115.72 ± 2.8	129.45 ± 3.2	149.71 ± 3.7
313.15 K	88.36 ± 2.2	88.19 ± 2.2	87.48 ± 2.2	90.47 ± 2.2	94.89 ± 2.3	100.31 ± 2.4	108.06 ± 2.6	117.68 ± 2.9	131.2 ± 3.2	152 ± 3.7
323.15 K	88.63 ± 2.2	88.59 ± 2.2	87.53 ± 2.2	91 ± 2.2	95.93 ± 2.3	101.88 ± 2.5	109.53 ± 2.7	119.76 ± 2.9	133.39 ± 3.3	153.8 ± 3.8
333.15 K	88.8 ± 2.2	88.99 ± 2.2	87.76 ± 2.2	91.5 ± 2.2	96.6 ± 2.4	102.38 ± 2.5	111 ± 2.7	121.18 ± 3	135.38 ± 3.3	156.22 ± 3.8
343.15 K	88.88 ± 2.2	89.1 ± 2.2	88.31 ± 2.2	92.56 ± 2.3	97.46 ± 2.4	103.64 ± 2.5	111.93 ± 2.8	122.85 ± 3	138.08 ± 3.4	159.7 ± 3.9
353.15 K	89.15 ± 2.2	89.47 ± 2.2	88.97 ± 2.2	92.31 ± 2.3	98.61 ± 2.4	104.99 ± 2.6	113.83 ± 2.8	124.97 ± 3	140.57 ± 3.4	161 ± 4
363.15 K	89.25 ± 2.2	89.6 ± 2.2	89.27 ± 2.2	93.51 ± 2.3	99.61 ± 2.4	106.52 ± 2.6	115.04 ± 2.8	126.81 ± 3.1	142.17 ± 3.5	164.98 ± 4
373.15 K	–	–	89.52 ± 2.2	93.89 ± 2.3	100.23 ± 2.5	107.47 ± 2.6	116.01 ± 2.8	128.22 ± 3.1	144.36 ± 3.5	168.45 ± 4.1
